Test: Radiochemical purity of [^18F]FES stock solution during storage (radiolysis stability)
Assay type: physicochemical
Conditions: for Radio-chemical purity after 10 h storage: sodium ascorbate in purification and formulation (0.45% m/v)
Procedure: Radiochemical purity is the ratio of the radioactivity of the radionuclide agent under chemical form on the total radioactivity of this same radionuclide. Radiochemical purity of the [^18F]FES stock solution is measured. […]

Radio-chemical purity (Example 2: sodium ascorbate during purification only, none in final solution, 250 GBq 18-Fluorine, time of storage 0 hours (end of synthesis)): 99.3%
Radio-chemical purity (Example 2: sodium ascorbate during purification only, none in final solution, 250 GBq 18-Fluorine, time of storage 4 hours): 95%
Radio-chemical purity (Example 2: sodium ascorbate during purification only, none in final solution, 250 GBq 18-Fluorine, time of storage 8 hours): 93%
Radio-chemical purity (Example 2: sodium ascorbate during purification only, none in final solution, 250 GBq 18-Fluorine, time of storage 10 hours): 92%
Radio-chemical purity after 10 h storage (Example 3, batch number 1, 79 GBq 18-Fluorine): 98.0%
Radio-chemical purity after 10 h storage (Example 3, batch number 2, 99 GBq 18-Fluorine): 99.0%
Radio-chemical purity after 10 h storage (Example 3, batch number 3, 164 GBq 18-Fluorine): 96.7%
Radio-chemical purity after 10 h storage (Example 3, batch number 4, 195 GBq 18-Fluorine): 97.1%
Radio-chemical purity (Example 4: synthesis in the presence of sodium ascorbate, 164 GBq 18-Fluorine, time of storage 0 hours (end of synthesis)): 98.0%
Radio-chemical purity (Example 4: synthesis in the presence of sodium ascorbate, 164 GBq 18-Fluorine, time of storage 5 hours): 96.8%
Radio-chemical purity (Example 4: synthesis in the presence of sodium ascorbate, 164 GBq 18-Fluorine, time of storage 10 hours): 96.7%
Decrease of radiochemical purity after 10 hours of storage (synthesized in the presence of sodium ascorbate (Example 4, Table 4)): 1.3%
Decrease of radiochemical purity after 10 hours of storage (synthesized without antioxidant (Example 2, Table 2)): 7.3%
Compound: C[C@]12CC[C@@H]3c4ccc(O)cc4CC[C@H]3C1C[C@@H]([18F])[C@@H]2O (stereo partly drawn) [[^18F]FES, 16α-[^18F]fluoro-17β-estradiol]

Reference: US10695450B2, “Synthesis of a radioactive agent composition” (LABORATOIRES CYCLOPHARMA, priority 2016, dated 2020)
